Measured values from publication PMC9326368, “A Novel PARP Inhibitor YHP-836 For the Treatment of BRCA-Deficiency Cancers” (Frontiers in Pharmacology, 2022).

Assays:
PARP1 = PARP1 (Homo sapiens, UniProt P09874); test: PARP1 enzymatic assay on histone-coated plate with NAD+, PAR product detection; assay type: biochemical
PARP2 = PARP2 (Homo sapiens, UniProt Q9UGN5); test: PARP2 enzymatic assay on histone-coated plate with NAD+, PAR product detection; assay type: biochemical
Chain of PARP2 (Q9UGN5 whole entry): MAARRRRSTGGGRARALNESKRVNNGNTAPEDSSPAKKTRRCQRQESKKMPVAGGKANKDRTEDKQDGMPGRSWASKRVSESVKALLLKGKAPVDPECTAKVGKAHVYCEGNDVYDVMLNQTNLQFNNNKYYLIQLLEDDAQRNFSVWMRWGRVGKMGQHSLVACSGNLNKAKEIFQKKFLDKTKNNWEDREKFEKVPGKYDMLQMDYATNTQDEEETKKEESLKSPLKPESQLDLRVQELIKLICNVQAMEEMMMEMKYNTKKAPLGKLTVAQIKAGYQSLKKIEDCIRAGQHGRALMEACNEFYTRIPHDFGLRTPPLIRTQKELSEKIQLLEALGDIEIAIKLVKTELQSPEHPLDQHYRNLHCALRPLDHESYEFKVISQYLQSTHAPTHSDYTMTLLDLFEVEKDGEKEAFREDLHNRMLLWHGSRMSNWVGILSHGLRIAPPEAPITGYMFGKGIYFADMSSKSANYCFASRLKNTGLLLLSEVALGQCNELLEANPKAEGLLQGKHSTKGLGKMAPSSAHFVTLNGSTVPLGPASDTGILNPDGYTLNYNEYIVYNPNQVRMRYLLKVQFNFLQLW

Chain of PARP1 (P09874 2-1014): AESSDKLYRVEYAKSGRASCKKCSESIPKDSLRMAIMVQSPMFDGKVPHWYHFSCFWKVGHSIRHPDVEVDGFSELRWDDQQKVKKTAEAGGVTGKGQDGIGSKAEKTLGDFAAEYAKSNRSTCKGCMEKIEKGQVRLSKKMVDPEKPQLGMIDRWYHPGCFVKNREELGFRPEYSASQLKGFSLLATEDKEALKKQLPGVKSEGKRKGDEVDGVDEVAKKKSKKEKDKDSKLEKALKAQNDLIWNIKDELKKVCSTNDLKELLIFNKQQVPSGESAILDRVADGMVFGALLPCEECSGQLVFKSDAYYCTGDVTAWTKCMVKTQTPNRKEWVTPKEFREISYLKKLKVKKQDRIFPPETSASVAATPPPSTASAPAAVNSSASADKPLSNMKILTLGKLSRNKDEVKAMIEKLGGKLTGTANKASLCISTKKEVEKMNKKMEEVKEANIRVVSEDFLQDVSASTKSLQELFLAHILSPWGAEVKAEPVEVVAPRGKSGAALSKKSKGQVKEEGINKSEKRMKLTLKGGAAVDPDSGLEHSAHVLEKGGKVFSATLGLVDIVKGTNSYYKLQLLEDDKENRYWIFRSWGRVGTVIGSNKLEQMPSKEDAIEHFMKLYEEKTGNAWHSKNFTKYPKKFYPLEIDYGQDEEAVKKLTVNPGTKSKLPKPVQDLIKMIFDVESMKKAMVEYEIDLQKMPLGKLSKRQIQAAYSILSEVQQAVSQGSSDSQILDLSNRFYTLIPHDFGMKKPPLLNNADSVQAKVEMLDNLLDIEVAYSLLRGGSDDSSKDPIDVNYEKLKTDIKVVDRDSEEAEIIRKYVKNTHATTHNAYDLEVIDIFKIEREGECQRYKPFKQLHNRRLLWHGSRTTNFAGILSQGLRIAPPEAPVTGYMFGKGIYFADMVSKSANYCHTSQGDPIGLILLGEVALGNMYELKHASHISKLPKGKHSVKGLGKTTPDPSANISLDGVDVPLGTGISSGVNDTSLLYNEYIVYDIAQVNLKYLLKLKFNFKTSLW

**Q.** Which results are given for `O=C(c1cc(Cn2c(=O)[nH]c(=O)c3ccccc32)ccc1F)N1CCN(CC(F)(F)F)CC1` [YHP-836]?
**A.** IC50 (PARP1): 6.33 nM; IC50 (PARP2): 3.62 nM
